Target: T1, hTERT (catalytic subunit of human telomerase) (Homo sapiens, UniProt O14746)
T1 construct: gene TERT; with telomerase ribonucleoprotein (TERC RNA and accessory proteins)
Test: test-tube TRAP assay
Type: biochemical

T1 sequence (O14746 whole entry): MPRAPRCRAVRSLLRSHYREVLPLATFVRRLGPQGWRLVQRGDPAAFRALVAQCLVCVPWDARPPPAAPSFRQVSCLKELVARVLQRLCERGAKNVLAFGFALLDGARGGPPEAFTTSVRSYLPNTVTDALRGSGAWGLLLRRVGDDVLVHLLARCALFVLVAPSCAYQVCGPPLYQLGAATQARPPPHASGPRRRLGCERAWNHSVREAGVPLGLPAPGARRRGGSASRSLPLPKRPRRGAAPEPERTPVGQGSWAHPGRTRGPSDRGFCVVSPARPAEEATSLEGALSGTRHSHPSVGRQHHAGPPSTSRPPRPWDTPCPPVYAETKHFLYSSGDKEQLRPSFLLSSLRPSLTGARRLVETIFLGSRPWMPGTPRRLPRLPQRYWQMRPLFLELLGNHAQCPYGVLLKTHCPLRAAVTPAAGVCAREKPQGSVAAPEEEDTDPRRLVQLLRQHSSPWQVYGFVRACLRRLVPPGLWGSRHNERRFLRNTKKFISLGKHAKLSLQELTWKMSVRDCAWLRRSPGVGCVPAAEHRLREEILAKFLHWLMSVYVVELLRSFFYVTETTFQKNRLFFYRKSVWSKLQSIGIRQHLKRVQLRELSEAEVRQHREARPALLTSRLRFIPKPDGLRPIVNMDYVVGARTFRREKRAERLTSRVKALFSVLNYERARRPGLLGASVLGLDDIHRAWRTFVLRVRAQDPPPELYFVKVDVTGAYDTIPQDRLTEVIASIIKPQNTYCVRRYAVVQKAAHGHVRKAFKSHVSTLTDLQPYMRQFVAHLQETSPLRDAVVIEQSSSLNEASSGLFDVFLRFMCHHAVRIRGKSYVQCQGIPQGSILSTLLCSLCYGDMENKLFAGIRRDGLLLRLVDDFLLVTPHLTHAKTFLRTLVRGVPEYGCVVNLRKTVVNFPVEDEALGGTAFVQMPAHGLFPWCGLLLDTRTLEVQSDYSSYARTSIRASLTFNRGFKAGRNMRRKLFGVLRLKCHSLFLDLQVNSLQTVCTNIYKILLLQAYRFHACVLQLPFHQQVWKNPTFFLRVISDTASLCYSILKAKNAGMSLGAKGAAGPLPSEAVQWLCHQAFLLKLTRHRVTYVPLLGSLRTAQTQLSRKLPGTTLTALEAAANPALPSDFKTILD

IC50: 64.1 ± 2.53 µM
SMILES: C/C(=C\C(=O)Nc1ccccc1C(=O)O)c1ccc2ccccc2c1 [BIBR1532]

— article PMC9701690, “Teloxantron inhibits the processivity of telomerase with preferential DNA damage on telomeres” (Cell Death & Disease, 2022)
